# Where two headings read alike, the source gives them in different places.
# Assays:
# [1] = MetID profile in mouse liver microsomes; assay type: in vitro ADME; details: 60 min of incubation
# Description: In order to determine if 26 induces liver microsomal metabolism changes, the MetID profile of 26 in mouse liver microsomes was investigated under the same conditions as for brusatol. […] However, 87% of 26 (area %) was detected after 60 min of incubation while five identified metabolites were all in relatively small percentages.
# [2] = Plasma stability
# [3] = Stability in simulated gastric fluid
# [4] = test system: LCL1 cells; experiment: Cell viability assay (CellTiter-Glo luminescence); assay type: cell-based; details: Homo sapiens; LCL1, 5000 cells, 72 hours; read-out: half-maximal inhibitory concentration (IC50)
# [5] = test system: Raji cells; experiment: cells; assay type: cell-based, human; details: for activity on viability of Raji cells (in words): 100 nM for 72 h
# [6] = Stability in simulated intestinal fluid
# [7] = test system: SU-DHL-4 cells; experiment: Cell viability assay (CellTiter-Glo luminescence); assay type: cell-based; details: Homo sapiens, SU-DHL-4, 48 h, read-out: viability of cells inhibited
# [8] = test system: K562 cells; experiment: Cell cycle assay (PI staining, flow cytometry); assay type: cell-based, human; details: K562, 100 nM, 48 hours
# Description: (§1) 5 million cells were harvested, fixed with 80% ethanol for 2 hours or overnight at −20° C., then washed with PBS and incubated with Propidium iodide (PI) staining buffer (0.5 mg/ml propidium iodide in PBS with 50 μg/ml RNase A) for 30 minutes at room temperature. The stained cells were resuspended in PBS and analyzed on a FACSCalibur system (Becton Dickinson, San Jose, Calif., USA) using FlowJo software (TreeStar, San Carlos, Calif., USA).
# [9] = test system: Raji cells; experiment: Cell cycle assay (PI staining, flow cytometry); assay type: cell-based, human; details: 100 nM, 48 hours
# Description: as §1
# [10] = test system: HL-60 cells; experiment: Cell cycle assay (PI staining, flow cytometry); assay type: cell-based, human; details: HL-60, 100 nM, 48 hours
# Description: as §1
# [11] = test system: SU-DHL-4 cells; experiment: Cell cycle assay (PI staining, flow cytometry); assay type: cell-based, human; details: SU-DHL-4, 100 nM, 48 hours
# Description: as §1
# [12] = test system: HL60, K562, MOLM14 and SU-DHL-4 cell lines; experiment: IC50 of Brusatol in less and more sensitive cell lines; assay type: cell-based, human; details: 72 hours
# Description: FIGS. 5A-5F: PI3K family of proteins is crucial for Brusatol-mediated inhibitory effects. FIG. 5A: IC50 assays of Brusatol were determined in the indicated cancer cells. All of the cells were treated for 72 hours. […] NS, not significant. […] Then cells were fixed and stained with PI. Flow cytometry assays were performed to determine cell cycle progression. The subG1 population in cells was labeled as the percentage. […] FIG. 5F: The described cells were incubated with Brusatol (0, 50 nM, 100 nM) for different periods (0, 12 hours, 24 hours).
# [13] = test system: NOD/SCID mice; experiment: In vivo toxicity test; details: 24 days; for survival: 4 mice per group
# Description: […]; 4 mice per group) were intraperitoneally injected with a maximum dose of […] of Brusatol, #15 or #26 compound every other day (three times per week). The survival rate was recorded to monitor the tolerance of the compounds in these mice.
# […]. Six-week-old male NOD.CB17PrkdcSCID/J (NOD/SCID) mice (Jackson Labs, Bar Harbor, Me., USA; 4 mice per group) were intraperitoneally injected with a dose of 5 mg/kg of one of three compounds—brusatol, 15, or 26—every other day, three times per week. The mice were monitored and euthanized after 24 days of treatment. […]. […] […].
# [14] = Plasma stability; remark: listed apart in the source
# [15] = test system: AKT1, GSK3, and mTOR; experiment: Western blot of PI3K/AKT regulated signaling proteins; assay type: cell-based, human; details: Raji and SU-DHL-4 cells; 0, 50 nM, 100 nM; 0, 12 hours, 24 hours
# Description: Western blot analyses were performed as previously described. Briefly, total cell lysates were separated by SDS-PAGE gel and transferred to nitrocellulose membrane. The membranes were blocked with 5% non-fat milk, probed with specific antibodies, and visualized using the Odyssey scanner (LiCor Inc., Lincoln, Nebr.).
# [16] = test system: MOLM14 xenografts; experiment: In vivo tumorigenic assay using xenografts; set-up: species or system NOD/SCID mice; details: 2 mg/kg intraperitoneally three times per week, two weeks
# Description: Six-week-old male NOD.CB17-Prkdc^scid/J (NOD/SCID) mice (Jackson Labs, Bar Harbor, Me., USA) were used as the human-in-mouse xeno-transplantation model. MOLM14 cells (1×10^7 cells) were injected into the subcutaneous space on the left flank of the mice. Once xenografts reached a size of 100 mm^3, Brusatol and analogs (14, 15, 26, 31) at 2 mg/kg body weight or PBS were injected intraperitoneally three times per week. Body weight and tumor size were monitored before every injection. After treatment for two weeks, the mice were euthanized by CO2 inhalation and the tumors were carefully excised. The tumor volume (mm^3) was measured and calculated using the formula (a×b×b)/2 (a, the largest diameter of two measurements; b, the smallest diameter of two measurements).
# [17] = test system: 13 cell lines representing a range of hematologic malignancies; experiment: Cell viability in panel of hematologic malignancy derived cell lines; details: 100 nM, 72 hours
# Description: Cell viability was determined after 72 hours by detecting luminescence. ALL, acute lymphoblastic leukemia; BL, Burkitt's lymphoma; DLBCL, diffuse large B-cell lymphoma; MCL, mantle cell lymphoma; AML, acute myeloid leukemia; MM, multiple myeloma; LCLs, lymphoblastoid cell lines.
# (§2) 5000 cells as indicated were cultured in 96-well plate with 100 μl of media. On the next day, Brusatol or associated analogs were added once to the cells without media change. After treatment, the cells were incubated with 100 μl buffer for 10 minutes at room temperature following the instructions of CellTiter-Glo kit (Promega, Madison, Wis.). Luminescence was detected using a multi-mode reader Cytation 5 (BioTek, Winooski, Vt.). Brusatol or its analogs are dissolved in 100% ethanol and diluted in 1×PBS for treatment. Two independent experiments done in duplicates were performed.
# [18] = 60 min
# [19] = 60 min; remark: listed apart in the source
# [20] = not given; remark: listed apart in the source
# [21] = test system: MOLT-4, SU-DHL-6, SU-DHL-10, RPMI-8226, and LCL1; experiment: Cell viability in five additional cell lines; details: MOLT-4, SU-DHL-6, SU-DHL-10, RPMI-8226, LCL1
# Description: as §2
# To investigate their inhibitory activities on the growth of EBV-associated lymphomas and other types of lymphomas, conjugates were first investigated for their effects on the viability of Raji cells, a Burkitt's lymphoma (BL) cell line, when treated at 100 nM for 72 h. […] These cell lines represent the cell models of a range of hematologic malignancies.
# [22] = 5 mg/kg intraperitoneally every other day
# [23] = 10 mg/kg intraperitoneally every other day
structure (smiles),measurement,setting,value
"COC(=O)[C@@]12OC[C@]34C([C@@H](O)[C@@H]1O)[C@@]1(C)CC(=O)C(O)=C(C)[C@@H]1C[C@H]3OC(=O)[C@H](OC(=O)C=C(C)C)[C@@H]24 (stereo partly drawn) [Brusatol, methyl (1R,2S,3S,3aS,3a1R,4R,6aR,7aR,11aS)-1,2,9-trihydroxy-8,11a-dimethyl-4-((3-methylbut-2-enoyl)oxy)-5,10-dioxo-1,4,5,6a,7,7a,10,11,11a,11b-decahydro-2H-3,3a1-(epoxymethano)dibenzo[de,g]chromene-3(3aH)-carboxylate]",parent detected after incubation in mouse liver microsomes (area %),[1],40%
same,"Plasma stability remaining % at 60 min, human",[2],91%
same,Stability in simulated gastric fluid (% at 4 h),[3],109%
same,IC50,[4],2 to 6 nM
same,cytotoxicity at 0.1 µM,"[5]; Homo sapiens, 100 nM, 48 hours post-treatment, read-out: viability of cells inhibited",> 80%
same,IC50,"[5]; Homo sapiens, 5000 cells, 72 hours, read-out: half-maximal inhibitory concentration (IC50)",2 to 6 nM
same,Stability in simulated intestinal fluid (% at 4 h),[6],100%
same,cytotoxicity at 0.1 µM,[7],> 80%
same,cells in the sub-G1 phase,[8],3.19%
same,cells in the sub-G1 phase,[9],68.4%
same,cells in the sub-G1 phase,[10],7.63%
same,cells in the sub-G1 phase,[11],67.9%
same,"fold more sensitive (IC50), MOLM14 and SU-DHL-4 compared to HL60 and K562",[12],about 10 fold
same,mice survived (of four),[13]; [22],three
same,survival,[13]; [22],75%
same,"Plasma stability remaining % at 60 min, rat",[14],100%
same,"protein expression of AKT1, GSK3, and mTOR (in words)",[15],significantly reduced
"COC(=O)[C@@]12OC[C@]34C([C@@H](O)[C@@H]1O)[C@@]1(C)CC(=O)C(OC(=O)CNC(=O)OC(C)(C)C)=C(C)[C@@H]1C[C@H]3OC(=O)[C@H](OC(=O)C=C(C)C)[C@@H]24 (stereo partly drawn) [Compound 15, methyl (1R,2S,3S,3aS,3a1R,4R,6aR,7aR,11aS)-9-(((tert-butoxycarbonyl)glycyl)oxy)-1,2-dihydroxy-8,11a-dimethyl-4-((3-methylbut-2-enoyl)oxy)-5,10-dioxo-1,4,5,6a,7,7a,10,11,11a,11b-decahydro-2H-3,3a1-(epoxymethano)dibenzo[de,g]chromene-3(3aH)-carboxylate]",Stability in simulated gastric fluid (% at 4 h),[3],25%
same,activity on viability of Raji cells (in words),[5],moderate inhibition
same,Stability in simulated intestinal fluid (% at 4 h),[6],42%
same,mice survived (of four),[13]; [22],two
same,survival,[13]; [22],50%
same,toxicity in vivo (in words),[13]; [23],obviously lethal for the majority of mice within the first 4 days
same,survival,[13]; [23],0%
same,tumor size response (in words),[16],strong and rapid inhibitory response
same,inhibition of cell viability (in words),[17],significantly inhibit cell viability
"COC(=O)[C@@]12OC[C@]34C([C@@H](O)[C@@H]1O)[C@@]1(C)CC(=O)C(OC(=O)C[C@H](C)N)=C(C)[C@@H]1C[C@H]3OC(=O)[C@H](OC(=O)C=C(C)C)[C@@H]24 (stereo partly drawn) [Compound 26, methyl (1R,2S,3S,3aS,3a1R,4R,6aR,7aR,11aS)-9-(((S)-3-aminobutanoyl)oxy)-1,2-dihydroxy-8,11a-dimethyl-4-((3-methylbut-2-enoyl)oxy)-5,10-dioxo-1,4,5,6a,7,7a,10,11,11a,11b-decahydro-2H-3,3a1-(epoxymethano)dibenzo[de,g]chromene-3(3aH)-carboxylate]",parent detected after incubation in mouse liver microsomes (area %),[1],87%
same,"percentage of brusatol converted from 26, human plasma",[18],47%
same,Stability in simulated gastric fluid (% at 4 h),,97%
same,"percentage of brusatol converted from 26, rat plasma",[19],60%
same,Stability in simulated intestinal fluid (% at 4 h),[20],76%
same,mice survived (of four),[13]; [22],four
same,toxicity in vivo (in words),[13]; [22],did not show any obvious signs of toxicity
same,toxicity in vivo (in words),[13]; [23],did not show any obvious signs of toxicity
"COC(=O)[C@@]12OC[C@]34C([C@@H](O)[C@@H]1O)[C@@]1(C)CC(=O)C(OCC(=O)NCCN)=C(C)[C@@H]1C[C@H]3OC(=O)[C@H](OC(=O)C=C(C)C)[C@@H]24 (stereo partly drawn) [Compound 40, methyl (1R,2S,3S,3aS,3a1R,4R,6aR,7aR,11aS)-9-(2-((2-aminoethyl)amino)-2-oxoethoxy)-1,2-dihydroxy-8,11a-dimethyl-4-((3-methylbut-2-enoyl)oxy)-5,10-dioxo-1,4,5,6a,7,7a,10,11,11a,11b-decahydro-2H-3,3a1-(epoxymethano)dibenzo[de,g]chromene-3(3aH)-carboxylate]",activity on viability of Raji cells (in words),[5],moderate activity
same,activity on five additional cell lines (in words),[21],moderate to good activities

# Source: patent US20230151021A1, “Compounds and Compositions for Treating Hematologic Malignancies” (priority 2020, published 2023)
